Among the data in paper PMC11167047 (Cell Death Discovery, 2024) are residual kinase activity values, retold here.

The structures appear in SMILES notation.

Holding throughout (test): kinome screen (33PanQinase)
Holding throughout (type): biochemical

The target of one test is T1, GRK3 (Homo sapiens, UniProt P35626).
T1 construct: purchased Reaction Biology Europe GmbH (formerly ProQinase)
T1 sequence (P35626 1-688): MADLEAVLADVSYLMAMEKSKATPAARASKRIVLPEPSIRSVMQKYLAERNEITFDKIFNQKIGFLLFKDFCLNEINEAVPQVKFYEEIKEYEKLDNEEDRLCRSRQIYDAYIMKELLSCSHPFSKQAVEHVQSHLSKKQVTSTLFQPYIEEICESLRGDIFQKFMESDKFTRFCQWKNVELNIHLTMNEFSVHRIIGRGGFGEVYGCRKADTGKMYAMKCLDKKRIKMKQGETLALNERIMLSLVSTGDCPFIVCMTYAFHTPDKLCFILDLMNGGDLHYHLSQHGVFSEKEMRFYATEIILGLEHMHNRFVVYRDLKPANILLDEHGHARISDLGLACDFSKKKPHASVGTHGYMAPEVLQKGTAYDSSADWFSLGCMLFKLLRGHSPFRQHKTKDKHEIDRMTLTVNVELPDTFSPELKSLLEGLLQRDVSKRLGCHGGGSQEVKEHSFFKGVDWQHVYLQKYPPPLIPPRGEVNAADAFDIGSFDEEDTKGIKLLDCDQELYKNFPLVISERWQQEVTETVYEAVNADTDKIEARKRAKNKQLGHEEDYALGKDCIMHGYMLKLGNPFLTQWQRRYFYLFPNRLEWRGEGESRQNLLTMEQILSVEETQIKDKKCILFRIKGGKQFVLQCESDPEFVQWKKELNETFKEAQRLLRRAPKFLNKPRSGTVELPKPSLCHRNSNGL
The protocol:
(§1) The Kinome Screening was performed by Reaction Biology Europe GmbH (http://reactionbiology.com; Freiburg i. Br., Germany).

The target of the next test is T2, SRPK2 (Homo sapiens, UniProt P78362).
T2 construct: purchased Reaction Biology Europe GmbH (formerly ProQinase)
The protocol: as §1

For the next test, the target named is T3, PKCα (Homo sapiens, UniProt P17252).
T3 construct: purchased Reaction Biology Europe GmbH (formerly ProQinase)
The protocol: as §1

The next test has as its target T4, MST1 (Homo sapiens, UniProt Q13043).
T4 construct: purchased Reaction Biology Europe GmbH (formerly ProQinase)
T4 sequence (Q13043 1-487): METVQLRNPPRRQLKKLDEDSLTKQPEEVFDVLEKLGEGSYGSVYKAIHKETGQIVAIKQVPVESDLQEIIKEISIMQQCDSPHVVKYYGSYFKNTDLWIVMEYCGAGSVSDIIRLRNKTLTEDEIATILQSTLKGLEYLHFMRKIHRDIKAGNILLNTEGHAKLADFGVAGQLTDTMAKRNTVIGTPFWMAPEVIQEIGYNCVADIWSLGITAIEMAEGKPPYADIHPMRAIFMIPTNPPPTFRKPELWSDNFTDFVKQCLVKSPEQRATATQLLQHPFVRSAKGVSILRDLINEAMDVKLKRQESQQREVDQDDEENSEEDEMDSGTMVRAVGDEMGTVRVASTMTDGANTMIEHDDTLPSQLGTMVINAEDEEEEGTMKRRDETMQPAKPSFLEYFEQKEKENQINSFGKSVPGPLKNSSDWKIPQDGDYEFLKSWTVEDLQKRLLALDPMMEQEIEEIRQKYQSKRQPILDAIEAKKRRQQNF
The protocol: as §1

The next test addresses T5, BTK (Homo sapiens, UniProt Q06187).
T5 construct: purchased Reaction Biology Europe GmbH (formerly ProQinase)
The protocol:
as §1

The next test has as its target T6, ASK1 (Homo sapiens, UniProt Q99683).
T6 construct: purchased Reaction Biology Europe GmbH (formerly ProQinase)
T6 sequence (Q99683 1-1374): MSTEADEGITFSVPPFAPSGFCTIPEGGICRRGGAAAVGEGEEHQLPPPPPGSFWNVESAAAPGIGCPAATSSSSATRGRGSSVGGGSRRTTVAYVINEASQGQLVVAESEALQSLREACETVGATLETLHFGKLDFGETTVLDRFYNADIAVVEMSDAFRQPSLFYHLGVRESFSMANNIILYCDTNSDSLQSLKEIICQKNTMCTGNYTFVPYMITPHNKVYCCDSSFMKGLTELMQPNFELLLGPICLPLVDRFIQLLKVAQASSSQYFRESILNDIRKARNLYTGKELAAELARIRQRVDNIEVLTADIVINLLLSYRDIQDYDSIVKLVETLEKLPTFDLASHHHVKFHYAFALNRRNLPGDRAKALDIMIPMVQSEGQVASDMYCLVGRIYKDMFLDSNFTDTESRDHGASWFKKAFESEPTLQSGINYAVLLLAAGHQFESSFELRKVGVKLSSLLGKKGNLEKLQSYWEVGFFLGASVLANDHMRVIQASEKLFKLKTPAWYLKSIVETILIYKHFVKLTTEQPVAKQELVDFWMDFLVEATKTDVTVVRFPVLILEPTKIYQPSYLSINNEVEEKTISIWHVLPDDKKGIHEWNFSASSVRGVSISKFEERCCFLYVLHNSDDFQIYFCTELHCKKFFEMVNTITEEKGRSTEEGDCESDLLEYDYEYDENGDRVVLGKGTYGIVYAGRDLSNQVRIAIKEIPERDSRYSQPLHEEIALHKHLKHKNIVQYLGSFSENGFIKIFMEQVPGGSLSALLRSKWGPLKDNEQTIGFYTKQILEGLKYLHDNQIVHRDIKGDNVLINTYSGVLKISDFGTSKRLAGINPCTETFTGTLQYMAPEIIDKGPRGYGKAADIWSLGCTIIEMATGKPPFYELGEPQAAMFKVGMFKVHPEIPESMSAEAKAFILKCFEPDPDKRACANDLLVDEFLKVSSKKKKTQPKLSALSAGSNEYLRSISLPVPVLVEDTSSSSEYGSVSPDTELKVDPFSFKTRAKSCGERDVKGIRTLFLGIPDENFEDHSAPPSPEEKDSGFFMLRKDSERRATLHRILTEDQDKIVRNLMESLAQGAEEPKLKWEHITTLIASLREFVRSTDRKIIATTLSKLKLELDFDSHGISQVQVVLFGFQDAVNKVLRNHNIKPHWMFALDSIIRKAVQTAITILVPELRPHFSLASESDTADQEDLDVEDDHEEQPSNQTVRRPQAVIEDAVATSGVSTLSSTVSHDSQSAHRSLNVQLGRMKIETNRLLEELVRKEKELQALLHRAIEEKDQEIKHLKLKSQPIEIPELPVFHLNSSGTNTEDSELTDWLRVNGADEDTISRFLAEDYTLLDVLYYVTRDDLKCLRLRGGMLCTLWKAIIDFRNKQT
Here is the method: as §1

Another test deals with T7, PKA (Homo sapiens, UniProt P17612).
T7 construct: purchased Reaction Biology Europe GmbH (formerly ProQinase)
The protocol:
as §1

Another test concerns the target T8, RPS6KA1 (Homo sapiens, UniProt Q15418).
T8 construct: purchased Reaction Biology Europe GmbH (formerly ProQinase)
The protocol: as §1

T5 sequence (Q06187 whole entry): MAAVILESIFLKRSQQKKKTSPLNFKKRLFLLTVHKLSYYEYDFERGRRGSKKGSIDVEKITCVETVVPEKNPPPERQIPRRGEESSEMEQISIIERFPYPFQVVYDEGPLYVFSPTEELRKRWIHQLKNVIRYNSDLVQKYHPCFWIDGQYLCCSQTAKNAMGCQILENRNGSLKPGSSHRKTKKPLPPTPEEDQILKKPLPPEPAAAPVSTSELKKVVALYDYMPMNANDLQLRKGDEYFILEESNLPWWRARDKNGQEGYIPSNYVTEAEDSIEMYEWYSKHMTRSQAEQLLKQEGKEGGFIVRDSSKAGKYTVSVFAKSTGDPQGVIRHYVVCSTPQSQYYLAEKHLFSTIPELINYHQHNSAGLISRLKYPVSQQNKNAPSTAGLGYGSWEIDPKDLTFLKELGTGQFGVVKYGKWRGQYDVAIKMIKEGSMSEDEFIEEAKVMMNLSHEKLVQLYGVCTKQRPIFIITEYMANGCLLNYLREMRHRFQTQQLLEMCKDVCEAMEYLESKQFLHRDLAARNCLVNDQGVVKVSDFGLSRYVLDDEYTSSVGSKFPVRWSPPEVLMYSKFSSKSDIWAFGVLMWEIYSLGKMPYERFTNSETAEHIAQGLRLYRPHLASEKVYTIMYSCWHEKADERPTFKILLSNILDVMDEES
T2 sequence (P78362 whole entry): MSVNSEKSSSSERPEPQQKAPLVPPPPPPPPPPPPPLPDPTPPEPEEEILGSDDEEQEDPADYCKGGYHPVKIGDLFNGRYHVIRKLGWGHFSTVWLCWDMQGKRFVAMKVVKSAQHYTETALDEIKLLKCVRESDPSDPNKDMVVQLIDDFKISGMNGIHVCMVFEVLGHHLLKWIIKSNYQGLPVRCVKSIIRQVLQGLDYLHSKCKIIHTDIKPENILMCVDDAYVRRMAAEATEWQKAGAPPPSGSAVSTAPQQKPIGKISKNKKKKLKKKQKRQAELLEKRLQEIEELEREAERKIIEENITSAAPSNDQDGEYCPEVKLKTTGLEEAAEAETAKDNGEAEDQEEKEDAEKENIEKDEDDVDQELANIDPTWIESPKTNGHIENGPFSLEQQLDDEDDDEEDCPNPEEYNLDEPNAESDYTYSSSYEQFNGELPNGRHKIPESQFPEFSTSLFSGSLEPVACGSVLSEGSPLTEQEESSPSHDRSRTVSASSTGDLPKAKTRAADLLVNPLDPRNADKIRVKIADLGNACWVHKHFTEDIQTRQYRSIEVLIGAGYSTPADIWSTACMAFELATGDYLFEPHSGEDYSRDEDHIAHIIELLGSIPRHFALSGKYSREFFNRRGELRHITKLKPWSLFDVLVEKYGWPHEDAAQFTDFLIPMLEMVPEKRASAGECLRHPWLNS
T8 sequence (Q15418 whole entry): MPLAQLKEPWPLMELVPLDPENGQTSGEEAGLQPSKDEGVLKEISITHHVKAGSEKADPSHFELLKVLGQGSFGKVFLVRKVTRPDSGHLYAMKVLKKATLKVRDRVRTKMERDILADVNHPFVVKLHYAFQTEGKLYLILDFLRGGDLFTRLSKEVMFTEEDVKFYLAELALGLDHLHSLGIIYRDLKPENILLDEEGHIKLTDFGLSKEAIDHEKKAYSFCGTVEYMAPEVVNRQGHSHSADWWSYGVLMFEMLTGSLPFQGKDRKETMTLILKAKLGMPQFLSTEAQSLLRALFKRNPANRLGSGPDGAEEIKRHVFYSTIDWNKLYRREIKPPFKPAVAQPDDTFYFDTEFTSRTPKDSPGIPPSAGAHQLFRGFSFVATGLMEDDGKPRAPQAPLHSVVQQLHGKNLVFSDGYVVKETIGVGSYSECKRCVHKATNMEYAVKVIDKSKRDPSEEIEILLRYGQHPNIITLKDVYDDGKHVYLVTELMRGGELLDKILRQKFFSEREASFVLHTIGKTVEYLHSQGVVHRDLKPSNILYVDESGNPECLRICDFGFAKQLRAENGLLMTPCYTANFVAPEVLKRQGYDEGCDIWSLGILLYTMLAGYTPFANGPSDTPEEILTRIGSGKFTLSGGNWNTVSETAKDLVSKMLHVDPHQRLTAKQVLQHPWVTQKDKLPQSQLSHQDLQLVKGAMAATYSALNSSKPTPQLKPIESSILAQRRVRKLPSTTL

As for `c1ccc(CNc2cc(-c3c[nH]c4ncccc34)ccn2)cc1` [meriolin 36], the residual kinase activity was 98 % of control on GRK3 (0.3 µM); 74 % of control at GRK3 (3 µM); 87 % of control on SRPK2 (0.3 µM); 55 % of control on SRPK2 (3 µM); 49 % of control at PKCα (0.3 µM); 11 % of control at PKCα (3 µM). For the same molecule, the residual kinase activity is recorded as 4 % of control at MST1 (0.3 µM); 1 % of control on MST1 (3 µM); 103 % of control at BTK (0.3 µM); 77 % of control on BTK (3 µM); 50 % of control on ASK1 (0.3 µM); 15 % of control on ASK1 (3 µM). The residual kinase activity was 12 % of control on PKA (0.3 µM), 2 % of control on PKA (3 µM), 20 % of control on RPS6KA1 (0.3 µM) and 10 % of control at RPS6KA1 (3 µM).

Consider `COc1ccnc2[nH]cc(-c3cc(N)nc(N)c3)c12` [meriolin 16], for which the residual kinase activity at GRK3 (0.03 µM) was 111 % of control; on GRK3 (0.3 µM), 107 % of control; at SRPK2 (0.03 µM), 93 % of control; at SRPK2 (0.3 µM) it was 91 % of control; on PKCα (0.03 µM), 95 % of control; at PKCα (0.3 µM), 80 % of control. The residual kinase activity was 88 % of control at MST1 (0.03 µM); 49 % of control on MST1 (0.3 µM); 114 % of control on BTK (0.03 µM); 96 % of control on BTK (0.3 µM); 97 % of control at ASK1 (0.03 µM); 85 % of control on ASK1 (0.3 µM). Further, the residual kinase activity at PKA (0.03 µM) is given as 75 % of control; on PKA (0.3 µM) it was 43 % of control; on RPS6KA1 (0.03 µM), 46 % of control; at RPS6KA1 (0.3 µM), 22 % of control.
